Entries after “also recorded” stand apart in the source; their conditions may differ.
How the values were obtained:
[1] = Phase-1 drug-drug interaction study, plasma PK in healthy volunteers
Method: A drug-drug interaction study (DDI) study is a study designed to investigate whether a drug alters the pharmacokinetics of another drug or drugs or their metabolites.
Compound (III) Subjects received 800 mg of Compound (III) once daily from Days 1-3, Days 11-13, and Days 21-23. PK blood samples for determination of Compound (III) and metabolite concentrations were collected in reference to the Day 3, Day 13, and Day 23 doses.
Simeprevir—Subjects received 150 mg of Simeprevir (SMV) once daily from Days 4-23. PK blood samples for determination of SMV concentrations were collected in reference to the Day 10, Day 13, Day 20, and Day 23 doses.
Odalasvir—Subjects received a loading dose of 150 mg on Day 14, and 50 mg of Odalasvir once daily from Days 15-23. PK blood samples for determination of Odalasvir concentrations were collected in reference to the Day 20 and Day 23 doses.
Compound (III)—Subjects received 800 mg of Compound (III) once daily from Days 1-3, Days 11-13 and Days 21-23. PK blood samples for determination of Compound (III) and metabolite concentrations were collected in reference to the Day 3, Day 13, and Day 23 doses.
Simeprevir—Subjects receive 150 mg of SMV once daily from Days 4-23. PK blood samples for determination of SMV concentrations were collected in reference to the Day 20 and Day 23 doses.
Odalasvir—Subjects receive a loading dose of 150 mg on Day 4, and 50 mg of Odalasvir once daily from Days 5-23. PK blood samples for determination of Odalasvir concentrations were collected in reference to the Day 10, Day 13, Day 20, and Day 23 doses.
A primary objective was to evaluate the effect of multiple oral doses of Odalasvir (alone), Simeprevir (alone), and Odalasvir and Simeprevir on the multiple oral dose PK of Compound (III) (and certain metabolites thereof, such as the major metabolites in systemic circulation) in healthy volunteers. Other objectives were to evaluate the safety and tolerability of multiple oral doses of Compound (III) when administered alone and in combination with single and multiple oral doses of Odalasvir and/or Simeprevir in healthy volunteers; to determine the potential effect of Compound of Compound (III) and/or Odalasvir on the steady-state PK of Simeprevir in healthy volunteers; to determine the potential effect of Compound of Compound (III) and/or Simeprevir on the steady state PK of Odalasvir in healthy volunteers.
Various other PK parameters were estimated including: […], t1/2, Tmax, Tlast, CL/F, Vz/F, and λz.
Odalasvir: 150 mg loading dose; 50 mg for the remainder of the study period.

OATP1B1 = biological target: T1, OATP1B1 (Homo sapiens, UniProt Q9Y6L6); conditions: uptake transporter; cited from earlier work
T1 sequence (Q9Y6L6 1-691): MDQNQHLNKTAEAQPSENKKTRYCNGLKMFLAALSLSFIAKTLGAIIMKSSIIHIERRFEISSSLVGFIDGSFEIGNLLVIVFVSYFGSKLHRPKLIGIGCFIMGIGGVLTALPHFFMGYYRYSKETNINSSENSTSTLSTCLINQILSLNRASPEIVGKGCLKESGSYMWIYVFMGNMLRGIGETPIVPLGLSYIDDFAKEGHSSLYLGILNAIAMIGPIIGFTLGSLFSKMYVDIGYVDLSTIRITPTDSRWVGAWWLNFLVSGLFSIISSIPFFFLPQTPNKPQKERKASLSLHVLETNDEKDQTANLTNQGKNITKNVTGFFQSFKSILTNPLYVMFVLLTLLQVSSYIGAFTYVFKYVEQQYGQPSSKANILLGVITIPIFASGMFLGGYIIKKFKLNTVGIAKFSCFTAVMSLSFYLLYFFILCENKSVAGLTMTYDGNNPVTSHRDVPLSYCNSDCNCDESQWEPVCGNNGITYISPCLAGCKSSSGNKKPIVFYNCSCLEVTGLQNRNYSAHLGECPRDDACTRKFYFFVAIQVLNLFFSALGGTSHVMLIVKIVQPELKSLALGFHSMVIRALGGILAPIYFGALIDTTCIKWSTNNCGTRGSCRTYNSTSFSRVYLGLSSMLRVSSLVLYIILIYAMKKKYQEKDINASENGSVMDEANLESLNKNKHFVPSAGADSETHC

P-gp = P-gp (Homo sapiens, UniProt P08183); conditions: efflux transporter; cited from earlier work
OATP1B3 = biological target: T2, OATP1B3 (Homo sapiens, UniProt Q9NPD5); conditions: uptake transporter; cited from earlier work
T2 sequence (Q9NPD5 1-702): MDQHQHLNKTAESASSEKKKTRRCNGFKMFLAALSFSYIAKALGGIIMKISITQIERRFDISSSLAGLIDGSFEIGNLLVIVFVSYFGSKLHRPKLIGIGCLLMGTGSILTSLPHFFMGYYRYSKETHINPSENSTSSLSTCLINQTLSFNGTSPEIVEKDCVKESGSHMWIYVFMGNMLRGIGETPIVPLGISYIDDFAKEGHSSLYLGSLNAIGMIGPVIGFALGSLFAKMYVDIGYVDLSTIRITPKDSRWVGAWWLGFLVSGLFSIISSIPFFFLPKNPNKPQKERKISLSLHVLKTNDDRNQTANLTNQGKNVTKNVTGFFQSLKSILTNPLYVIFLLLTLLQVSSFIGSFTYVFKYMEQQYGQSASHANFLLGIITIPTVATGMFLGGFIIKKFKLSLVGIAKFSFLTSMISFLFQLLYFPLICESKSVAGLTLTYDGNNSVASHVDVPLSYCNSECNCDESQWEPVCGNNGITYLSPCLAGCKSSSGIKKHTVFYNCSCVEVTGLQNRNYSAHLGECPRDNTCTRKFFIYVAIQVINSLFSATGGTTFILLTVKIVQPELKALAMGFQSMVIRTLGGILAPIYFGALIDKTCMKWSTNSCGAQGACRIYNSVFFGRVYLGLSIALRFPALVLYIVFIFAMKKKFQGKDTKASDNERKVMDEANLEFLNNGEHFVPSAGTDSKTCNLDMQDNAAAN

Sequence of P-gp (P08183 whole entry): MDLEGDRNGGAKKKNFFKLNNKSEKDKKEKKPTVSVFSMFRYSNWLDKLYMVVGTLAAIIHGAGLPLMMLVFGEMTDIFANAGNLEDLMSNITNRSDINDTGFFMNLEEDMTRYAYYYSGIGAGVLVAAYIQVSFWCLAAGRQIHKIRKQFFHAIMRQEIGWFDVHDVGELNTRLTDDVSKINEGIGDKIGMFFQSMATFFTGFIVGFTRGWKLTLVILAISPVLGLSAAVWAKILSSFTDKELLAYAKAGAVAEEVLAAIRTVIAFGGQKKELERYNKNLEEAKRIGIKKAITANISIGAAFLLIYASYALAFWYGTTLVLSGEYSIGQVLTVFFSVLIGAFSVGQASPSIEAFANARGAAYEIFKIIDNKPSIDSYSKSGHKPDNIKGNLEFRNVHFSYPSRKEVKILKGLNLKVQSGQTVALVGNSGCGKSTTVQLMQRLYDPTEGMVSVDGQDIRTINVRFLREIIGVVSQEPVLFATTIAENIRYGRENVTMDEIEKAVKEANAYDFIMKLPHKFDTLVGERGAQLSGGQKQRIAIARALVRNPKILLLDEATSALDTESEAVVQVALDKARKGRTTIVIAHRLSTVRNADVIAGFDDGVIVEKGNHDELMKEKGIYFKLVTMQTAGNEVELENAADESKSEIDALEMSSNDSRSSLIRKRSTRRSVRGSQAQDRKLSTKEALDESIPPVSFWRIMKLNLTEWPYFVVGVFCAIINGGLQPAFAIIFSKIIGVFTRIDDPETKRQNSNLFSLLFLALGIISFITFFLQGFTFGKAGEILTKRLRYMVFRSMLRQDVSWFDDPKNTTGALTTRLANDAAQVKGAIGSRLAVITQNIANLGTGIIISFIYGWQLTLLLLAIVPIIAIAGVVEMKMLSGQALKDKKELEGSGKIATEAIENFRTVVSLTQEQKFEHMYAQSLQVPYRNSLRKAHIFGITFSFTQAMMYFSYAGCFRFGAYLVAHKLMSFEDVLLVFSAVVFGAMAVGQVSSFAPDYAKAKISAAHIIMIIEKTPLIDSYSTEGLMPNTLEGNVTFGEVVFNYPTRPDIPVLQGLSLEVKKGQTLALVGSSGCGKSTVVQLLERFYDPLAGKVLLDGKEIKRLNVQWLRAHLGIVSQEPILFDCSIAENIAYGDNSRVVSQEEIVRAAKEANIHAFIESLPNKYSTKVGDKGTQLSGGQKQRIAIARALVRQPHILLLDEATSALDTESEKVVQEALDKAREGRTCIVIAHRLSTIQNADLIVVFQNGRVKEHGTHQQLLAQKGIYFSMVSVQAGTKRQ

SMILES	exposure increase caused by Odalasvir ([1]; DDI study results)	exposure increase caused by SMV ([1]; DDI study results)	increase of exposure with the combination of the three drugs ([1]; both, human, in vivo)	bioavailability of Compound (III) when SMV and ODV are co-administered, compared to Compound (III) alone ([1]; human subjects)	in vitro inhibition of OATP1B1 (OATP1B1)	in vitro inhibition of P-gp (P-gp)	in vitro inhibition of OATP1B3 (OATP1B3)	exposure increase, effect of the three Compounds ([1]; DDI study results)	increase of exposure with the combination of the three drugs ([1]; human in vivo study)	effect of Compound (III) on exposure / bioavailability ([1]; human subjects)
CC(C)OC(=O)C(C)N[P@](=O)(OC[C@@]1(F)O[C@@H](n2ccc(=O)[nH]c2=O)[C@](C)(O)[C@@H]1O)Oc1ccccc1 (stereo in doubt) [Compound (III)]	4 ×	3 ×	7-8 times	approximately 8 fold	no in vitro inhibition	no in vitro inhibition	no in vitro inhibition	–	–	–
COC(=O)N[C@H](C(=O)N1[C@H](c2nc3cc(-c4cc5ccc4CCc4ccc(c(-c6ccc7[nH]c([C@@H]8C[C@@H]9CCCC[C@@H]9N8C(=O)[C@@H](NC(=O)OC)C(C)C)nc7c6)c4)CC5)ccc3[nH]2)C[C@@H]2CCCC[C@@H]21)C(C)C [ODV, methyl [(2S)-1-[(2S,3aS,7aS)-2-[6-[11-[2-[(2S,3aS,7aS)-1-[(2S)-2-[(methoxycarbonyl)amino]-3-methylbutanoyl]octahydro-1H-indol-2-yl]-1H-benzimidazol-6-yl]tricyclo[8.2.2.2^4,7]hexadeca-1(12),4,6,10,13,15-hexaen-5-yl]-1H-benzimidazol-2-yl]octahydro-1H-indol-1-yl]-3-methyl-1-oxobutan-2-yl]carbamate]	–	1.6 ×	–	–	no inhibition	moderate inhibition	no inhibition	1.5 ×	1.5 times	no apparent effect; also recorded: does not alter
